Measurements taken from US4298525A, “Bis-indole-alkaloid” (Richter Gedeon Vegyeszeti Gyar RT, priority 1979, dated 1981).
Where two headings read alike, the source gives them in different places.

What was measured:
[1] = administration of vincristine; cited from earlier work
[2] = in vivo
[3] = tested on: Ehrlich ascites carcinoma; test: effect on Ehrlich ascites carcinoma; assay type: in vivo, outbred Swiss mice; details: for Mean duration of life expressed in % of treated*/control: second part of table, maximum 400%
Protocol: (§1) Transplantation was carried out into outbred Swiss mice at a level of 5×10^6 ascites tumor cells. Administration of RGH-4451 was started 24 hours after transplantation.

S 180 sc. carcinoma = test: effect on S 180 sc. carcinoma; assay type: in vivo, Swiss mice; details: even at doses as high as 16 mg/kg i.p. daily
Protocol: S 180 sc. tumor tissues were transplanted into Swiss mice subcutaneously. Treatment was started 24 hours after transplantation. RGH-4451 was administered once a day in a dose of 2, 4, 8 and 16 mg./kg., respectively intraperitoneally. The tumor growth inhibition was evaluated on the 11th day on the basis of the weight of tumors. The change of the weight of spleen was also monitored.

[4] = acute toxicity on mice (LD50, i.p.); assay type: in vivo
Protocol: The acute toxicity of RGH-4451 was tested on mice.
The lethal dose killed the animals on the 2nd to 5th day.

[5] = overall tumor-growth inhibition and prolongation of life (summary of the tests); assay type: in vivo
Protocol: From the tests described hereinabove it can be concluded that 1.0 to 10.0 mg./kg. daily doses or 20 mg./kg. single doses of RGH-4451 have a significant tumor-growth inhibition effect and prolong the duration of life.

P 388 leukemia = test: effect on P 388 leukemia tumors of mice; assay type: in vivo, BDF1 hybrid mice
Description: 10^6 P 388 leukemia cells were transplanted into BDF1 hybrid mice intraperitoneally. Administration of RGH-4451 was started the day following the transplantation.

[6] = therapeutic effect, MTD/min eff. D; details: in vivo
[7] = paralytic symptoms at sublethal doses; assay type: in vivo; details: even at sublethal doses; by contrast with vincristine
Guerin sc. carcinoma = test: effect on Guerin sc. carcinoma; assay type: in vivo, Wistar rats; details: for Mortality until the 22nd day/number of animals / Inhibition / Weight of tumor, treated: six subsequent days; for Inhibition / Weight of tumor, treated: 22nd day
Protocol: Tumors were transplanted into Wistar rats subcutaneously. Administration of RGH-4451 was started on the day following the transplantation and the compound was administered six subsequent days intraperitoneally. The inhibition of tumor growth was evaluated on the 22nd day.

P 388 tumor cells = test: inhibition of tumor growth in tissue culture, P 388; assay type: cell-based, mice; details: for inhibition at 0.1 µg/mL: Mus musculus, P388
Protocol: The inhibition of tumor growth was initially studied in a tissue culture. A 20 mg./ml. solution of RGH-4451 in a Fischer medium was prepared and subsequently diluted to the desired concentration. The number of cells in the P 388 cultures was determined 24 and 48 hours after treatment.
The inhibition was 43% after 24 hours and 89% after 48 hours. In in vitro tests the compound was 100-times less toxic than vincristine and 4-times less toxic than N-desmethyl-N-formyl-leurosine.

NK/Ly ascites lymphoma = test: effect on NK/Ly ascites lymphoma; assay type: in vivo, outbred Swiss mice
Protocol: Tests were carried out analogously with the Ehrlich ascites test.
as §1

[8] = animals; cited from earlier work
[9] = human therapy; Rohn, R. et al.; cited from earlier work
[10] = 3.2 mg/kg i.p., 9 treatments, every day
[11] = 3.2 mg/kg i.p., 9 treatments, every day, control 12.3 days
[12] = 5.0 mg/kg i.p., 9 treatments, every day
[13] = 5.0 mg/kg i.p., 9 treatments, every day, control 13.2 days
[14] = 6.4 mg/kg i.p., 9 treatments, every day
[15] = 6.4 mg/kg i.p., 9 treatments, every day, control 12.3 days
[16] = 10 mg/kg i.p., 5 treatments, every second day
[17] = 10 mg/kg i.p., 5 treatments, every second day, control 10.5 days
[18] = 20 mg/kg i.p., 1 treatment, control 10.5 days
[19] = 20 mg/kg i.p., 6 treatments, every day
[20] = 20 mg/kg i.p., 6 treatments, every day, control 13.2 days
[21] = 2.0 mg/kg i.p., 9 treatments, every day
[22] = 4.0 mg/kg i.p., 9 treatments, every day
[23] = 6.0 mg/kg i.p., 9 treatments, every day

CC[C@]1(O)C[C@H]2CN(CCc3c([nH]c4ccccc34)[C@@](C(=O)OC)(c3cc4c(cc3OC)N(C=O)[C@H]3[C@@](O)(C(=O)OC)[C@H](OC(C)=O)[C@]5(CC)C=CCN6CC[C@]43[C@@H]65)C2)C1 [vincristine, N-desmethyl-N-formylvinblastine]
toxic side effects [1]: paralytic symptoms due to neurotoxicity | MTD/min eff. D [2]: 6 | effect of a large single dose on the duration of life [3]: did not increase the duration of life

CCOCN1c2cc(OC)c(C3(C(=O)OC)CC4CN(CCc5c3[nH]c3ccccc53)CC(O)(CC)C4)cc2C23CCN4CC=CC(CC)(C(OC(C)=O)C(O)(C(=O)OC)C12)C43 (centres unmarked) [RGH-4451]
decrease in the weight of spleen (S 180 sc. carcinoma): no substantial decrease in the weight of spleen | LD50 of RGH-4451 as multiple of that of N-desmethyl-N-formyl-leurosine ([4]; i.p.): 2.5 times | LD50 of RGH-4451 as multiple of that of vinblastine ([4]; i.p.): about 10 times | LD50 of RGH-4451 as multiple of that of vincristine ([4]; i.p.): 17 fold | paralytic symptoms accompanying death ([4]; lethal dose): not accompanied by paralytic symptoms | LD50 ([4]; mouse, in vivo, ip): 70 mg/kg | crippling of surviving animals ([4]; survivors, in contrast with vincristine): not crippled even temporarily | single dose with a significant tumor-growth inhibition effect and prolongation of life [5]: 20 mg/kg | Mean duration of life expressed in % of treated/control (P 388 leukemia; [10]): 181% | Mean duration of life, treated (P 388 leukemia; [11]): 22.3 days | Mean duration of life expressed in % of treated/control (P 388 leukemia; [12]): 163% | Mean duration of life, treated (P 388 leukemia; [13]): 21.5 days | Mean duration of life expressed in % of treated/control (P 388 leukemia; [14]): 166% | Mean duration of life, treated (P 388 leukemia; [15]): 20.5 days | Mean duration of life expressed in % of treated/control (P 388 leukemia; [16]): 208% | Mean duration of life, treated (P 388 leukemia; [17]): 21.8 days | Mean duration of life expressed in % of treated/control (P 388 leukemia; 20 mg/kg i.p., 1 treatment): 185% | Mean duration of life, treated (P 388 leukemia; [18]): 19.4 days | Mean duration of life expressed in % of treated/control (P 388 leukemia; [19]): 64% | Mean duration of life, treated (P 388 leukemia; [20]): 8.5 days | MTD/min eff. D [6]: 10 | paralytic symptoms [7]: entirely lacking | Mortality until the 22nd day/number of animals (Guerin sc. carcinoma; 2.0 mg/kg i.p.): 0/6 | Inhibition (Guerin sc. carcinoma; 2.0 mg/kg i.p.): 43 | Weight of tumor, treated (Guerin sc. carcinoma; 2.0 mg/kg i.p., control 18.9): 10.7 | Mortality until the 22nd day/number of animals (Guerin sc. carcinoma; 6.0 mg/kg i.p.): 0/6 | Inhibition (Guerin sc. carcinoma; 6.0 mg/kg i.p.): 81 | Weight of tumor, treated (Guerin sc. carcinoma; 6.0 mg/kg i.p., control 44.9): 8.69 | Mortality until the 22nd day/number of animals (Guerin sc. carcinoma; 10.0 mg/kg i.p.): 0/6 | Inhibition (Guerin sc. carcinoma; 10.0 mg/kg i.p.): 68 | Weight of tumor, treated (Guerin sc. carcinoma; 10.0 mg/kg i.p., control 44.9): 14.64 | Mortality until the 22nd day/number of animals (Guerin sc. carcinoma; 14.0 mg/kg i.p.): 5/6 | growth of Guerin carcinoma (in words) (Guerin sc. carcinoma; 2 to 10 mg/kg i.p. doses): strongly inhibited | Mean duration of life expressed in % of treated/control ([3]; 1.0 mg/kg i.p., 9 treatments, every day): 15.4% | Mean duration of life, treated ([3]; 1.0 mg/kg i.p., 9 treatments, every day, control 15.4 days): 54.2 days | On the 65th day alive [3, 21]: 9/10 | On the 65th day tumor-free [3, 21]: 6/10 | Mean duration of life, treated ([3]; 2.0 mg/kg i.p., 9 treatments, every day, control 16.4 days, first part of table): 43.0 days | Mean duration of life, treated ([3]; 2.0 mg/kg i.p., 9 treatments, every day, control 16.4 days, second part of table (65th day)): 64.1 days | Mean duration of life expressed in % of treated/control ([3]; 2.0 mg/kg i.p., 9 treatments, every day, first part of table): 261% | Mean duration of life expressed in % of treated*/control [3, 21]: 392% | On the 65th day alive [3, 22]: 8/10 | On the 65th day tumor-free [3, 22]: 7/10 | Mean duration of life, treated ([3]; 4.0 mg/kg i.p., 9 treatments, every day, control 16.4 days, first part of table): 36.4 days | Mean duration of life, treated ([3]; 4.0 mg/kg i.p., 9 treatments, every day, control 16.4 days, second part of table (65th day)): 62.9 days | Mean duration of life expressed in % of treated/control ([3]; 4.0 mg/kg i.p., 9 treatments, every day, first part of table): 222% | Mean duration of life expressed in % of treated*/control [3, 22]: 384% | On the 65th day alive [3, 23]: 8/10 | On the 65th day tumor-free [3, 23]: 4/10 | Mean duration of life, treated ([3]; 6.0 mg/kg i.p., 9 treatments, every day, control 15.9 days, first part of table): 48.2 days | Mean duration of life, treated ([3]; 6.0 mg/kg i.p., 9 treatments, every day, control 16.7 days, second part of table (65th day)): 65.8 days | Mean duration of life expressed in % of treated/control ([3]; 6.0 mg/kg i.p., 9 treatments, every day, first part of table): 303% | Mean duration of life expressed in % of treated*/control [3, 23]: 394% | On the 65th day alive ([3]; 20 mg/kg i.p., 1 treatment): 8/10 | On the 65th day tumor-free ([3]; 20 mg/kg i.p., 1 treatment): 3/10 | Mean duration of life, treated ([3]; 20 mg/kg i.p., 1 treatment, control 16.7 days, second part of table (65th day)): 65.5 days | Mean duration of life expressed in % of treated*/control ([3]; 20 mg/kg i.p., 1 treatment): 392% | antitumor effect (in words) ([3]; 2 to 6 mg/kg once a day): remarkable antitumor effect | proportion of treated animals tumor-free on the 65th day (in words) ([3]; 2 to 6 mg/kg once a day): a great part of the treated animals is tumor-free on the 65th day | growth of P 388 tumor cells (in words) (P 388 tumor cells; 10^-1 μg./ml.): considerably inhibited | inhibition at 0.1 µg/mL (P 388 tumor cells; 10^-1 μg./ml., after 24 hours): 43% | inhibition at 0.1 µg/mL (P 388 tumor cells; 10^-1 μg./ml., after 48 hours): 89% | in vitro toxicity, times less toxic than N-desmethyl-N-formyl-leurosine (P 388 tumor cells; in vitro, less toxic than N-desmethyl-N-formyl-leurosine): 4 times | in vitro toxicity, times less toxic than vincristine (P 388 tumor cells; in vitro, less toxic than vincristine): 100 times | Mean duration of life expressed in % of treated/control (NK/Ly ascites lymphoma; [10]): 181% | Mean duration of life, treated (NK/Ly ascites lymphoma; [11]): 22.3 days | Mean duration of life expressed in % of treated/control (NK/Ly ascites lymphoma; [12]): 163% | Mean duration of life, treated (NK/Ly ascites lymphoma; [13]): 21.5 days | Mean duration of life expressed in % of treated/control (NK/Ly ascites lymphoma; [14]): 166% | Mean duration of life, treated (NK/Ly ascites lymphoma; [15]): 20.5 days | Mean duration of life expressed in % of treated/control (NK/Ly ascites lymphoma; [16]): 208% | Mean duration of life, treated (NK/Ly ascites lymphoma; [17]): 21.8 days | tolerability of the large dose given every day (in words) (NK/Ly ascites lymphoma; 20 mg/kg every day, cannot be administered due to its toxicity): cannot be administered every | Mean duration of life expressed in % of treated/control (NK/Ly ascites lymphoma; 20 mg/kg i.p., 1 treatment): 185% | Mean duration of life, treated (NK/Ly ascites lymphoma; [18]): 19.4 days | Mean duration of life expressed in % of treated/control (NK/Ly ascites lymphoma; [19]): 64% | Mean duration of life, treated (NK/Ly ascites lymphoma; [20]): 8.5 days | duration of life of the tumorous animals (in words) (NK/Ly ascites lymphoma; 3.2 to 6.4 mg/kg doses every day): considerably been prolonged | effect on duration of life (in words) (NK/Ly ascites lymphoma; single 20 mg/kg dose): also effective

CC[C@]12CN3CCc4c([nH]c5ccccc45)[C@@](C(=O)OC)(c4cc5c(cc4OC)N(C)[C@H]4[C@@](O)(C(=O)OC)[C@H](OC(C)=O)[C@]6(CC)C=CCN7CC[C@]54[C@@H]76)C[C@H](C3)[C@H]1O2 [leurosine]
antitumor activity [8]: antitumor activity of leurosine has been proved on animals | toxicity on the hematopoietic organs [9]: unreasonably high toxicity on the hematopoietic organs

CCC12CN3CCc4c([nH]c5ccccc45)C(C(=O)OC)(c4cc5c(cc4OC)N(C=O)C4C(O)(C(=O)OC)C(OC(C)=O)C6(CC)C=CCN7CCC54C76)CC(C3)C1O2 (centres unmarked) [N-desmethyl-N-formyl-leurosine, reference compound]
MTD/min eff. D [2]: 4 | effect of a large single dose on the duration of life [3]: did not increase the duration of life
